Entries after “also recorded” stand apart in the source; their conditions may differ. Where two headings read alike, the source gives them in different places.
What was measured:
[1] = biological target: T1, T-ag oligomerization on 64-bp oligonucleotide containing the SV40 core origin (Simian virus 40, UniProt P03070); format: biochemical; conditions: T-ag 6 pmol; for Effect on T-ag oligomerization, mutant set (FIG. 11 Panel B): 64-bp SV40 core origin, peptide concentration not given; for Effect on T-ag oligomerization (hexamer and double hexamer formation): peptide final concentration 1 mM (20 nmoles)
T1 construct: made in house
Description: (§1) Electrophoretic mobility shift assays (EMSA). Double stranded oligonucleotides, ^32P labeled at 5′ termini, were prepared using standard procedures (Sambrook, J., et al., 1989, Cold Spring Harbor Laboratory, Cold Spring Harbor, N.Y.; Sreekumar, K. A., et al., 2000, p. 49-67; In, L. Raptis (ed.), Methods in Molecular Biology; SV40 Protocols; Humana Press; Totowa, N.J.). EMSA rections were conducted using conditions for SV40 in vitro replication (Wobbe, C. R., et al., 1985, Proc. Natl. Acad. Sci. USA 82:5710-571 4). The reactions (20 μl) contained 7 mM MgCl2, 0.5 mM DTT, 4 mM AMP-PNP, 40 mM creatine phosphate (pH 7.6), 0.48 μg of creatine phosphate kinase, 5 μg of bovine serum albumin, 0.8 μg of Hae III-digested pBR322 ([…]; used as a nonspecific competitor), about 25 fmol of double stranded oligonucleotide, T-ag and the indicated amounts of peptide. After a 20-min incubation at 37° C., glutaraldehyde (0.1 % final concentration) was added and the reaction products were further incubated for 5 min. The reactions were stopped by the addition of 5 μl of 6× loading dye II (15% Ficoll, 0.25% bromophenol blue, and 0.25% xylene cyanol; Sambrook, J., et al., 1989, Cold Spring Harbor Laboratory, Cold Spring Harbor, N.Y.) to the reaction mixtures. Samples containing T-ag were applied to 3.5 to 12% gradient polyacrylamide gels and electrophoresed in 0.5% Tris-borate-EDTA (TBE) pH 8.4 for about 1.5 h (10 watts).

[2] = tested on: double stranded oligonucleotide containing the SV40 core origin (SEQ ID NO: 24); experiment: Nitrocellulose filter binding of peptide to DNA
Description: Nitrocellulose filter binding reactions. Assay for the ability of NLS based peptides to bind to DNA were performed using published methods (Sreekumar, K. A., et al., 2000, In, L. Raptis (ed.), Methods in Molecular Biology: SV40 Protocols; Humana Press, Totowa, N.J. p. 49-67). Reactions (20 μl) contained 7 mM MgCl2, 0.5 mM DTT, 4 mM AMP-PNP, 40 mM creatine phosphate (di-Tris salt pH7.7), 0.48 μg of creatine phosphokinase, 0.2 mg of bovine serum albumin per ml, 0.8 μg of Hae III-digested pBR322 DNA, about 25 fmol of a given oligonucleotide (about 10^6 cpm/pmol) and the indicated peptide. After incubation for 20 min at 37° C., the mixtures were filtered under suction through alkali-treated nitrocellulose filters (Millipore type HAWP; pore size, 0.4 μm; stored in 100 mM Tris-HCl, pH7.5). The filters were then washed with 5 ml of 100 mM Tris-HCl, pH 7.5, and were dried and counted in a Beckman LS 3801 scintillation counter.

[3] = tested on: 64 bp SV40 core origin (SEQ ID NO: 24); experiment: Peptide band shift (EMSA without T-ag), core origin; format: binding; conditions: for Peptide/DNA complex formation in peptide band shift: SV40 core origin, 13-mer set at 1 mM final concentration (20 nmoles); for DNA binding seen in EMSA without cross-linking: absence of cross-linking with glutaraldehyde
Description: as §1
[…] Moreover, the samples were loaded on 8% polyacryamide gels and electrophoresed in 0.5% TBE pH 8.4 for about 3h (about 200 volts). The gels were dried on Whatman 3 MM paper, subjected to autoradiography and quantitated using a Molecular Dynamics PhosphorImager (Sunnyvale, Calif.).

[4] = tested on: 64 bp enhancer control (SEQ ID NO: 29); experiment: Peptide band shift (EMSA without T-ag), control oligonucleotide; format: binding; conditions: 64 bp enhancer control oligonucleotide
Description: as §1
Peptide based band shift reactions were identical to those described above except that T-ag was omitted from the reactions and the final glutaraldehyde concentration was reduced to 0.05 %. Moreover, the samples were loaded on 8% polyacryamide gels and electrophoresed in 0.5% TBE pH 8.4 for about 3h (about 200 volts). The gels were dried on Whatman 3 MM paper, subjected to autoradiography and quantitated using a Molecular Dynamics PhosphorImager (Sunnyvale, Calif.).

T-ag helicase ATPase = biological target: T2, T-ag helicase ATPase (Simian virus 40, UniProt P03070); format: biochemical, SV40; conditions: duplicate lanes, FIG. 13
T2 construct: made in house
Description: A method for measuring ATP hydrolysis involves incubating T-ag with a ^32P-labeled ATP, cross-linking with gluteraldehyde, removing unincorporated nucleotides by passing the reaction products over a Bio-Spin P-30 column, drying the eluate in a Speedvac, resuspending the samples in formic acid, and performing thin layer chromatography on PEI (polyethyleneimine) plates. Using autoradiography, the amount of ATP, ADP and AMP associated with T-ag was determined.

double-stranded DNA = experiment: Binding of NLS peptides to double-stranded DNA
Description: (§2) In the examples that follow, peptides were designed and synthesized to contain NLS regions from a variety of viral and human proteins, in particular, T-ag of SV40, and each of the proteins encoded by the human tumor suppressor p53 gene (SEQ ID NO: 1), the E1 protein encoded by bovine papillomavirus (SEQ ID NO: 2), and a set of control peptides. Binding assays of these peptides were performed with a 64 bp oligonucleotide derived from the SV40 core origin (SEQ ID NO: 24). […] Single stranded DNA was bound poorly by p53 and E1 NLS region peptides.

single-stranded DNA = experiment: Binding of NLS peptides to single-stranded DNA
Description: as §2

[5] = tested on: SV40 DNA replication in HeLa human cell crude extracts; experiment: SV40 in vitro replication reaction; format: biochemical; parameters: Amount of peptide that completely blocks replication: unit not given here; conditions: for Inhibition of SV40 in vitro DNA replication: 30 μl reactions, with T-ag
Description: DNA replication reactions. SV40 in vitro replication reactions were conducted as described by Wobbe et al 1985, Proc. Natl. Acad. Sci. USA 82:5710-5714 (see also, Bullock, P. A., et al., 1998, p. 223-243. In S. Cotterill (ed.), Eukaryotic DNA Replication; A practical Approach, Oxford University Press, Oxford). Reaction mixtures (30 μl) contained 7 mM MgCl2, 0.5 mM DTT, 4 mM ATP, 40 mM creatine phosphate (di-Tris salt pH7.7), 1.4 μg of creatine phosphokinase, 12.5 μg/ml pSV01ΔEP, dATP, dGTP, and dTTP (100 μM each), CTP, GTP, and UTP (200 μM each), [α-^32p] dCTP (20 μM, about 5 cpm/fmol) and the indicated peptides.

T1 sequence (P03070 whole entry): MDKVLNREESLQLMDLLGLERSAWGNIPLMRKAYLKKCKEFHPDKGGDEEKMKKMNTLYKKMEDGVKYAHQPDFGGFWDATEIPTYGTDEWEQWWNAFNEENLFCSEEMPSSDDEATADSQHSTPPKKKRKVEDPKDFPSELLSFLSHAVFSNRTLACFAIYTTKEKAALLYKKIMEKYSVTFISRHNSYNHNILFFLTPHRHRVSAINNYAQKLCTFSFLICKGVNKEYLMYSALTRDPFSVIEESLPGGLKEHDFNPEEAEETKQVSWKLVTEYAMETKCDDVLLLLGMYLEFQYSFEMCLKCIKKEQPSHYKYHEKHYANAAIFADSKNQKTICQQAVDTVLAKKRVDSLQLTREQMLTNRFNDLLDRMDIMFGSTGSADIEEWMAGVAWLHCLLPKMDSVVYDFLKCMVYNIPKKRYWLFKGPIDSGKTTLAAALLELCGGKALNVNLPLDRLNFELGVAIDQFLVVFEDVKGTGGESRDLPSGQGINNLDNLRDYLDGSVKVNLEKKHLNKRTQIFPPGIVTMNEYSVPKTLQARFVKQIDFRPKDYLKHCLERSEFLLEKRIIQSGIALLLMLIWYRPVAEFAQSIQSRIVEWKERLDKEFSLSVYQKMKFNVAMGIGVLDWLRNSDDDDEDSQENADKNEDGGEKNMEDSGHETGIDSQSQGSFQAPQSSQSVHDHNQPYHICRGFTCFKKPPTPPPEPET
T2 sequence (P03070 whole entry): as above

“ADSQHSTPPKKKR (Virus; Host Macaca mulatta; DOMAIN (1)..(13) Domain of SV40 T-Antigen Protein (118)...(130)) [peptide 213, 13-mer of SV40 T-ag centered on Thr124]” was tested, and the “Effect on T-ag oligomerization, mutant set (FIG. 11 Panel B)” value ([1]; listed as SEQ ID NO: 3) was “complete inhibition of oligomerization”, the “Effect on T-ag oligomerization, mutant set (FIG. 11 Panel B)” value ([1]; listed as peptide T-213) was “inhibited T-ag oligomerization” and the “Effect on T-ag oligomerization” value ([1]; peptide final concentration 0.5 mM) was “inhibited T-ag assembly events”. For the same sequence, the “Effect on T-ag oligomerization (hexamer and double hexamer formation)” value [1] was “inhibited both hexamer and double hexamer formation”, the “Effect on T-ag oligomerization (hexamer and double hexamer formation)” value ([1]; listed as peptide T-213) was “formation of the standard hexamer and double hexamer protein was inhibited” and the “Binding to DNA in filter binding assay” value ([2]; high peptide concentrations (1 mM and 2 mM)) was “saturation of binding was observed”. For the same sequence, the “Binding to DNA in filter binding assay” value ([2]; peptide 0.5 mM) was “bound relatively poorly”, the “Binding to DNA in filter binding assay” value ([2]; peptide 0.5 mM to 2 mM, replication conditions, pBR322 competitor) was “binds to DNA” and the “Binding to DNA in filter binding assay” value ([2]; peptide 0.5 mM to 2 mM, replication conditions, pBR322 competitor, listed as peptide T-213) was “able to bind to DNA”. For the same sequence, the “Peptide/DNA complex formation in peptide band shift” value [3] was “found to bind to DNA”, the “Peptide/DNA complex formation in peptide band shift” value ([3]; listed as T-213) was “Mobility shifts are seen” and the “Peptide/DNA complex formation in peptide band shift” value ([3]; listed as peptide T-213) was “binds to DNA”. The “Peptide/DNA complex formation in peptide band shift” value [4] was “bound to the 64 bp enhancer control”, the “Peptide/DNA complex formation in peptide band shift” value ([4]; listed as peptide T-213) was “able to bind to the 64-bp enhancer control” and the “Effect on ATPase of T-ag” value (T-ag helicase ATPase) was “inhibited the ATPase of T-ag”.
In the case of “TKRALPNNTSSSPQPKKKPL (DOMAIN (1)..(20) Domain of p53 (304)...(323); listed as Homo sapiens) [SEQ ID NO: 1, peptide from the NLS/Cdk region of human p53]”, the “Binding to double-stranded DNA” value (double-stranded DNA) is reported as “bind to double-stranded DNA; also recorded: binds to double-stranded” and the “Binding to single-stranded DNA” value (single-stranded DNA) is reported as “bound poorly; also recorded: not single-stranded DNA”.
In the case of KRKVLGSSQNSSGSEASETPVKRRK [BP-E125], the “Binding to DNA in filter binding assay, E1 peptides” value (shortened to “Binding to DNA … E1 peptides”) ([2]; low peptide concentration 0.25 mM) is reported as “better DNA binder than peptide 217”, the “Binding to DNA … E1 peptides” value ([2]; low peptide concentration 0.25 mM, listed as peptide E1-P225) is reported as “binds at a relatively low concentration of peptide” and the “Binding to DNA … E1 peptides” value ([2]; peptide 0.25 mM and 0.5 mM) is reported as “binds to DNA at a lower concentration than does peptide 217”. For the same sequence, the “Binding to DNA … E1 peptides” value ([2]; peptide 0.25 mM and 0.5 mM, listed as BP-E1) was “bound to DNA”, the “Binding to DNA … E1 peptides” value ([2]; peptide 0.25 mM and 0.5 mM, listed as SEQ ID NO: 2) was “best DNA binder” and the “Binding to DNA … E1 peptides” value ([2]; peptide 0.25 mM and 0.5 mM, listed as peptide E1-P225) was “found to bind to DNA”. The “DNA binding seen in EMSA without cross-linking” value ([3]; listed as SEQ ID NO: 2) was “does not require cross-linking with glutaraldehyde”, the “DNA binding seen in EMSA without cross-linking” value ([3]; listed as peptide E1-225) was “successful EMSA experiments” and the “Concentration of peptide that completely blocked viral DNA replication” value [5] was “about 600 μM”. For the same sequence, the “Inhibition of SV40 in vitro DNA replication” value [5] was “at all concentrations tested inhibited; also recorded: inhibits in vitro DNA replication reactions”, the “Inhibition of SV40 in vitro DNA replication” value ([5]; listed as SEQ ID NO: 2) was “best inhibitor of DNA replication” and the “Amount of peptide that completely blocks replication” value ([5]; added to a reaction) was 20. The “Effect on ATPase of T-ag” value (T-ag helicase ATPase) was “blocked the degradation of ATP by T-ag”, the “Binding to double-stranded DNA” value (double-stranded DNA) was “bind to double-stranded DNA” and the “Binding to single-stranded DNA” value (single-stranded DNA) was “bound poorly”.

Reference: patent US20040147006A1, “Peptides that bind to DNA and inhibit DNA replication, and methods of use” (priority 2001, published 2004)
